Results on eight molecules are retold here after patent US20220340951A1, “MEASURING THE ANTIMICROBIAL SUSCEPTIBILITY OF MICROBES” (priority 2019, published 2022).

Data set [1] is described as follows: Antibiotic screening: CV, EIS and DPV of antibiotic solutions (without gels) on gold screen printed electrode. It counts as physicochemical. Particulars: antibiotic at typical working concentration, no gel; for Phase / Z at 100 kHz: EIS; for CDL / RSOLN: fitted EIS. On the procedure:
CV measurements were performed by sweeping the potential between −0.3 V to 0.5 V with reference to the Ag electrode three times. Analysis was performed using the third measurement. Electrodes were also characterised using differential pulse voltammetry (DPV) across the same potential range as CV. Peak current (Ipk) was extracted from the DPV measurement. Electrodes were also characterised using EIS. […] The Nyquist and Bode impedance plots that were generated were fitted to the Randles' equivalent circuit to extract various impedance parameters. […] A wide spectrum of antibiotics were tested including amoxicillin, oxacillin, methicillin, ampicillin, chloramphenicol, gentamicin, streptomycin and carbenicillin. […] Amoxicillin was then tested in an agarose gel with and without FF-C present (FIG. 2 (b)). […] The majority of the parameters are taken from fitted EIS data alongside Ipk from DPV measurements.

Data set [2] has as its system Staphylococcus aureus (ATCC 29213). As to the kind of experiment: Electrochemical (EIS) bacterial growth profile on antibiotic-infused gel-modified electrode. Particulars: for Z at 100 kHz growth profile compared with baseline (no bacteria): antibiotic 8 μg/ml in gel, up to 150 minutes. It counts as cell-based.
The next data set has as its system sensitive S. aureus. As to the kind of experiment: Gel streak plate growth (1 wt % agarose + LB). The class given is cell-based, Staphylococcus aureus. Particulars: amoxicillin 8 μg/ml; with or without FF-C.
The test system of data set [3] is methicillin-resistant Staphylococcus aureus (MRSA: ATCC 43300). Kind of data set: Electrochemical (EIS/DPV) bacterial growth profile on antibiotic-infused gel-modified electrode. It counts as cell-based.
Data set [4] relates to methicillin-resistant S. aureus (MRSA). Kind of data set: Gel streak plate growth (1 wt % agarose + LB Broth + FF-C). The class given is cell-based, Staphylococcus aureus. Particulars: amoxicillin 8 μg/ml.
For the next data set, the system named is MRSA. Kind of data set: Minimum inhibitory concentration by two-fold broth microdilution. It counts as cell-based. Particulars: Staphylococcus aureus; strain not stated explicitly; printed in the MRSA context.
In the next data set the test system is E. coli (ATCC 25922). As to the kind of experiment: Minimum inhibitory concentration of streptomycin as used in E. coli gels. Particulars: Escherichia coli, ATCC25922. It counts as cell-based.

Converted amounts (≈) assume the structure as drawn. “Also recorded” adds a separate entry of the source.

In the case of `O=C(N[C@H](CO)[C@H](O)c1ccc([N+](=O)[O-])cc1)C(Cl)Cl` [chloramphenicol], in data set [1], the “DPV Ipk” value came out at 0.31 μA, the Phase came out at 76.20 °, the “Z at 100 kHz” value came to 19.06 kΩ and the CDL is given as 0.41 μF. This molecule also came in with an RSOLN in data set [1] of 94.39 kΩ.

`CC1(C)S[C@@H]2[C@H](NC(=O)[C@H](N)c3ccccc3)C(=O)N2[C@H]1C(=O)O` [ampicillin]: in data set [1], the “DPV Ipk” value was found to be 0 μA, the Phase was 67.63 °, the “Z at 100 kHz” value was determined as 10.88 kΩ and the CDL is on record as 0.38 μF. Besides, the RSOLN in data set [1] was 40.93 kΩ.

Regarding `COc1cccc(OC)c1C(=O)N[C@@H]1C(=O)N2[C@@H]1SC(C)(C)[C@@H]2C(=O)O` [methicillin], in data set [1], the “DPV Ipk” value came to 0.06 μA, the Phase is 61.43 °, the “Z at 100 kHz” value was 15.92 kΩ and the CDL is given as 0.53 μF. Also, the RSOLN in data set [1] is 67.30 kΩ.

In the case of gentamicin, in data set [1], the “DPV Ipk” value stood at 0.01 μA, the Phase came to 31.68 °, the “Z at 100 kHz” value is given as 6.05 kΩ and the CDL worked out at 0.77 μF. In data set [1], this molecule had an RSOLN of 7.97 kΩ.

What is called MIC is the smallest concentration in the dilution series that meets the test's criterion for growth inhibition. A high value points to weaker potency. Turning to `CC1(C)S[C@@H]2[C@H](NC(=O)[C@H](N)c3ccc(O)cc3)C(=O)N2[C@H]1C(=O)O` [amoxicillin], in data set [2] (amoxicillin-laden gel 8 μg/ml, between 30 and 100 minutes), the “baseline-subtracted Z at 100 kHz over time” value is listed as “unchanging”. Moreover, in data set [2], the “Z at 100 kHz growth profile compared with baseline (no bacteria)” value was “almost identical response to the baseline response”. The “growth on streak plate” value in the data set on sensitive S. aureus was “completely inhibited; also recorded: unable to grow”. The “change in Z (baseline subtracted)” value in data set [3] (amoxicillin 8 μg/ml gel, over 30-100 minutes) was ~11 Ω. The “Z at 100 kHz growth profile compared with baseline (no bacteria)” value in data set [3] (amoxicillin 8 μg/ml in gel) was “does not imitate the baseline”. Further, the “DPV peak current (Ipk) growth profile, baseline subtracted” value in data set [3] (amoxicillin 50 μg/ml gel) is recorded as “almost completely flat”. Moreover, the “change in Z (baseline subtracted)” value in data set [3] (amoxicillin 50 μg/ml gel, 30-100 minutes) is listed as “virtually no change in Z”. For the same molecule, the “Z at 100 kHz growth profile compared with baseline (no bacteria)” value in data set [3] (amoxicillin 50 μg/ml in gel) was “very similar profile to the baseline measurement”. For the same molecule, in data set [1], the “DPV Ipk” value came out at 0.02 μA, the Phase is 82.74 °, the “Z at 100 kHz” value is listed as 21.34 kΩ and the CDL is 0.53 μF. This molecule also registered an RSOLN in data set [1] of 143.30 kΩ. Moreover, the “growth on streak plate” value in data set [4] is listed as “displays growth either in the presence or absence of amoxicillin”. The MIC in the data set on MRSA is around 8 µg/mL (≈ 21.9 µM).

For `Cc1onc(-c2ccccc2)c1C(=O)N[C@@H]1C(=O)N2[C@@H]1SC(C)(C)[C@@H]2C(=O)O` [oxacillin], the “Z at 100 kHz growth profile compared with baseline (no bacteria)” value in data set [2] is listed as “very similar Z profile to the baseline measurement”. For the same molecule, the “baseline-subtracted Z at 100 kHz over time” value in data set [2] (oxacillin gel 8 μg/ml, up to ~70 minutes) is on record as “remains fairly flat”. For the same molecule, in data set [3] (oxacillin 8 μg/ml gel), the “Z growth curves for gels with and without oxacillin” value is “look very similar for gels with and without oxacillin”. For the same molecule, in data set [1], the “DPV Ipk” value is recorded as 0 μA, the Phase is given as 111.17 °, the “Z at 100 kHz” value was 22.79 kΩ and the CDL is 0.28 μF. In data set [1], the RSOLN was found to be 49.81 kΩ.

Turning to `[H]/N=C(/N)N[C@H]1[C@H](O)[C@@H](O)[C@H](O[C@@H]2O[C@@H](C)[C@](O)(C=O)[C@H]2O[C@@H]2O[C@@H](CO)[C@H](O)[C@@H](O)[C@@H]2NC)[C@@H](N/C(N)=N\[H])[C@@H]1O` [streptomycin], in data set [1], the “DPV Ipk” value is listed as 0 μA, the Phase is on record as 58.51 °, the “Z at 100 kHz” value amounted to 16.45 kΩ and the CDL is recorded as 0.58 μF. Moreover, the RSOLN in data set [1] is 55.85 kΩ. The same molecule showed an MIC in the data set on E. coli (ATCC 25922) of around 4 µg/mL (≈ 6.88 µM).

Take `CC1(C)S[C@@H]2[C@H](NC(=O)C(C(=O)O)c3ccccc3)C(=O)N2[C@H]1C(=O)O` (stereo partly drawn) [carbenicillin]: in data set [1], the “DPV Ipk” value turned out to be 0 μA, the Phase is 46.56 °, the “Z at 100 kHz” value turned out to be 7.54 kΩ and the CDL was 0.44 μF. Also, the RSOLN in data set [1] worked out at 11.83 kΩ.
